Source: ChEMBL document CHEMBL6087403 (Bioorg Med Chem Lett, 2025)
Calls of active or inactive are those of the source. No cut-off for these calls is given here.

Assays:
[1] = Antioxidant activity assessed as DPPH radical scavenging activity incubated for 1 hr by spectrophotometric analysis; format: functional
Alpha glucosidase = Alpha glucosidase (Homo sapiens, UniProt O43451+P10253+P14410+Q2M2H8); test: Inhibition of alpha-glucosidase (unknown origin); format: protein assay

SMILES | IC50 [1] [µM] | IC50 (Alpha glucosidase) [µM] | Activity [1]
CC1=C(C(=O)O)C(c2ccccc2Cl)NC(=S)N1 (configuration not stated) | 45.3 | 12.5 | 
CCOC(=O)C1=C(C)n2nnnc2N(C)C1c1ccc(C)cc1.Cl.Cl (configuration not stated) | 68.2 | 61.1 | 
CC1=C(C(=O)[C@@H](C)c2ccccc2)C(c2ccc(C)cc2)NC(=S)N1 (some centres not stated) |  | 47.3 | inactive
CC1=C(C(=O)[C@@H](C)c2ccccc2)C(c2ccccc2)NC(=S)N1 (some centres not stated) | 67.8 | 61.1 | 
CC1=C(C(=O)[C@H](C)c2ccccc2)C(c2ccccc2Cl)NC(=S)N1 (some centres not stated) | 31.2 | 23.3 | 
CCOC(=O)C1=C(C)NC(NN)N(C)C1c1ccc(C)cc1.Cl.Cl (configuration not stated) | 85.1 | 71.1 | 
CCOC(=O)C1=C(C)NC(SC)N(C)C1c1cccc(OC)c1OC (configuration not stated) | 38.8 | 35.9 | 
CCOC(=O)C1=C(C)NC(NN)N(C)C1c1ccc([N+](=O)[O-])cc1.Cl.Cl (configuration not stated) | 66 | 72.4 | 
CCOC(=O)C1=C(C)NC(NN)N(C)C1c1ccccc1.Cl.Cl (configuration not stated) | 92.1 | 31.1 | 
CCOC(=O)C1=C(C)NC(SC)N(C)C1c1cccc(O)c1 (configuration not stated) | 29.5 | 21.5 | 
COC(=O)C1=C(C)NC(SC)N(C)C1c1ccccc1 (configuration not stated) | 69.5 | 84.2 | 
CCOC(=O)C1=C(C)NC(NN)N(C)C1c1cccc(O)c1.Cl.Cl (configuration not stated) | 79.3 | 62.7 | 
CCOC(=O)C1=C(C)NC(SC)N(C)C1c1ccc(C)cc1 (configuration not stated) | 87.3 | 44.4 | 
CC1=C(C(=O)[C@H](C)c2ccccc2)C(c2ccccc2)NC(=S)N1 (some centres not stated) | 69 | 76.2 | 
CCOC(=O)C1=C(C)n2nnnc2N(C)C1c1ccccc1.Cl.Cl (configuration not stated) | 33.2 | 39.4 | 
COc1ccc(O)c(C(C)(C)C)c1 | 44.2 |  | 
CCOC(=O)C1=C(C)NC(SC)N(C)C1c1ccc([N+](=O)[O-])cc1 (configuration not stated) | 61.2 | 33.3 | 
COC(=O)C1=C(C)n2nnnc2N(C)C1c1ccccc1.Cl.Cl (configuration not stated) | 55.1 | 65.1 | 
CC1=C(C(=O)[C@H](C)c2ccccc2)C(c2ccc(C)cc2)NC(=S)N1 (some centres not stated) |  | 41.2 | inactive
CC1=C(C(=O)O)C(c2ccc(C)cc2)NC(=S)N1 (configuration not stated) | 90.8 | 39.2 | 
CCOC(=O)C1=C(C)NC(SC)N(C)C1c1ccccc1 (configuration not stated) | 21.4 | 24.2 | 
CCOC(=O)C1=C(C)n2nnnc2N(C)C1c1cccc(O)c1.Cl.Cl (configuration not stated) | 49.2 | 45.6 | 
CC1=C(C(=O)O)C(c2ccccc2)NC(=S)N1 (configuration not stated) | 59.8 | 89.5 | 
CC1=C(C(=O)[C@@H](C)c2ccccc2)C(c2ccccc2Cl)NC(=S)N1 (some centres not stated) | 29.8 | 18.9 | 
